Molecules are shown by their SMILES.

The IC50 is the midpoint of a concentration-inhibition curve. The low end stands for inhibition by little substance, the high end for a need for much substance.

The test can be described thus: Inhibition of MCP1-stimulated chemotaxis in monocytes transfected with human CCR2.
`CC(=O)Nc1nc([C@@H](CCN2CCC3(C=Cc4ccccc43)CC2)C(=O)NCc2cc(C(F)(F)F)cc(C(F)(F)F)c2)cs1` [(2R)-N-{[3,5-bis(trifluoromethyl)phenyl]methyl}-2-(2-acetamido-1,3-thiazol-4-yl)-4-{spiro[indene-1,4'-piperidine]-1'-yl}butanamide] yielded an IC50 of 27 nM.

Take `CC(=O)Nc1nc([C@H](CCN2CCC3(C=Cc4ccccc43)CC2)C(=O)NCc2cc(C(F)(F)F)cc(C(F)(F)F)c2)cs1` [(2S)-N-{[3,5-bis(trifluoromethyl)phenyl]methyl}-2-(2-acetamido-1,3-thiazol-4-yl)-4-{spiro[indene-1,4'-piperidine]-1'-yl}butanamide]: the IC50 came to 5.3 nM.

`CNC(=O)Nc1nc([C@@H](CCN2CCC(c3ccccc3)CC2)C(=O)NCc2cc(C(F)(F)F)cc(C(F)(F)F)c2)cs1` [(R)-1-(4-(1-(3,5-bis(trifluoromethyl)benzylamino)-1-oxo-4-(4-phenylpiperidin-1-yl)butan-2-yl)thiazol-2-yl)-3-methylurea] gave an IC50 of 87 nM.

As to `CNC(=O)Nc1nc([C@H](CCN2CCC(c3ccccc3)CC2)C(=O)NCc2cc(C(F)(F)F)cc(C(F)(F)F)c2)cs1` [(S)-1-(4-(1-(3,5-bis(trifluoromethyl)benzylamino)-1-oxo-4-(4-phenylpiperidin-1-yl)butan-2-yl)thiazol-2-yl)-3-methylurea], half-maximal inhibition (IC50) required 1.8 nM.

Consider `CC(=O)Nc1nc([C@H](CCN2CCC(c3ccccc3)CC2)C(=O)NCc2cc(C(F)(F)F)cc(C(F)(F)F)c2)cs1` [(S)-N-(3,5-bis(trifluoromethyl)benzyl)-2-(2-acetamidothiazol-4-yl)-4-(4-phenylpiperidin-1-yl)butanamide], for which the half-maximal inhibitory concentration (IC50) came to 0.7 nM.

Compound `CC(=O)Nc1nc(C(CCN2CCC3(C=Cc4ccccc43)[C@@H](C)C2)C(=O)NCc2cc(C(F)(F)F)cc(C(F)(F)F)c2)cs1` (stereo partly drawn) [N-{[3,5-bis(trifluoromethyl)phenyl]methyl}-2-(2-acetamido-1,3-thiazol-4-yl)-4-[(5'R)-5'-methylspiro[indene-1,4'-piperidine]-1'-yl]butanamide] yielded an IC50 of 0.6 nM.

For `CC(=O)Nc1nc(C(CCN2CCC3(C=Cc4ccccc43)CC2)C(=O)NCc2cc(C(F)(F)F)cc(C(F)(F)F)c2)cs1` (configuration not stated) [N-{[3,5-bis(trifluoromethyl)phenyl]methyl}-2-(2-acetamido-1,3-thiazol-4-yl)-4-{spiro[indene-1,4'-piperidine]-1'-yl}butanamide], the IC50 stood at 0.7 nM.
